Reference: US20230263825A1, “ANTI-CANCER ACTIVITY OF PERBORATE SALTS” (priority 2020, published 2023)

Assay: Toxicology in rats, oral, histopathology
Type: in vivo
Details: rat, in vivo, po
Text: After 32 days, the rats were sacrificed and their organs were examined under a microscope.

O.O.O.O.[Na+].[O-]B1OO1 [sodium perborate tetrahydrate]
0%: HEART Notable or abnormal, % (0.125 mg/kg) | INTESTINE, Large Notable or abnormal, % (0.125 mg/kg) | INTESTINE, Small Notable or abnormal, % (0.125 mg/kg) | KIDNEY Edema, % (0.125 mg/kg) | KIDNEY Notable or abnormal, % (0.125 mg/kg) | LIVER Fattening, % (0.125 mg/kg) | LIVER Infiltration, % (0.125 mg/kg) | LIVER Notable or abnormal, % (0.125 mg/kg) | LUNG Lymphocytic infiltration, % (0.125 mg/kg) | LUNG Notable or abnormal, % (0.125 mg/kg) | LUNG Pulmonary edema, % (0.125 mg/kg) | PANCREAS Notable or abnormal, % (0.125 mg/kg) | SPLEEN Notable or abnormal, % (0.125 mg/kg) | STOMACH Notable or abnormal, % (0.125 mg/kg) | HEART Notable or abnormal, % (0.25 mg/kg) | INTESTINE, Large Notable or abnormal, % (0.25 mg/kg) | INTESTINE, Small Notable or abnormal, % (0.25 mg/kg) | KIDNEY Edema, % (0.25 mg/kg) | KIDNEY Notable or abnormal, % (0.25 mg/kg) | LIVER Fattening, % (0.25 mg/kg) | LIVER Infiltration, % (0.25 mg/kg) | LIVER Notable or abnormal, % (0.25 mg/kg) | LUNG Lymphocytic infiltration, % (0.25 mg/kg) | LUNG Notable or abnormal, % (0.25 mg/kg) | LUNG Pulmonary edema, % (0.25 mg/kg) | PANCREAS Notable or abnormal, % (0.25 mg/kg) | SPLEEN Notable or abnormal, % (0.25 mg/kg) | STOMACH Notable or abnormal, % (0.25 mg/kg) | HEART Notable or abnormal, % (0.5 mg/kg) | INTESTINE, Large Notable or abnormal, % (0.5 mg/kg) | INTESTINE, Small Notable or abnormal, % (0.5 mg/kg) | KIDNEY Edema, % (0.5 mg/kg) | KIDNEY Notable or abnormal, % (0.5 mg/kg) | LIVER Fattening, % (0.5 mg/kg) | LIVER Infiltration, % (0.5 mg/kg) | LIVER Notable or abnormal, % (0.5 mg/kg) | LUNG Lymphocytic infiltration, % (0.5 mg/kg) | LUNG Notable or abnormal, % (0.5 mg/kg) | LUNG Pulmonary edema, % (0.5 mg/kg) | PANCREAS Notable or abnormal, % (0.5 mg/kg) | SPLEEN Notable or abnormal, % (0.5 mg/kg) | STOMACH Notable or abnormal, % (0.5 mg/kg) | HEART Notable or abnormal, % (1 mg/kg) | INTESTINE, Large Notable or abnormal, % (1 mg/kg) | INTESTINE, Small Notable or abnormal, % (1 mg/kg) | KIDNEY Edema, % (1 mg/kg) | KIDNEY Notable or abnormal, % (1 mg/kg) | LIVER Fattening, % (1 mg/kg) | LIVER Infiltration, % (1 mg/kg) | LIVER Notable or abnormal, % (1 mg/kg)
10/10: HEART Within normal limits, No Exam (0.125 mg/kg) | INTESTINE, Large Within normal limits, No Exam (0.125 mg/kg) | INTESTINE, Small Within normal limits, No Exam (0.125 mg/kg) | KIDNEY Within normal limits, No Exam (0.125 mg/kg) | LIVER Within normal limits, No Exam (0.125 mg/kg) | LUNG Within normal limits, No Exam (0.125 mg/kg) | PANCREAS Within normal limits, No Exam (0.125 mg/kg) | SPLEEN Within normal limits, No Exam (0.125 mg/kg) | STOMACH Within normal limits, No Exam (0.125 mg/kg) | HEART Within normal limits, No Exam (0.25 mg/kg) | INTESTINE, Large Within normal limits, No Exam (0.25 mg/kg) | INTESTINE, Small Within normal limits, No Exam (0.25 mg/kg) | KIDNEY Within normal limits, No Exam (0.25 mg/kg) | LIVER Within normal limits, No Exam (0.25 mg/kg) | LUNG Within normal limits, No Exam (0.25 mg/kg) | PANCREAS Within normal limits, No Exam (0.25 mg/kg) | SPLEEN Within normal limits, No Exam (0.25 mg/kg) | STOMACH Within normal limits, No Exam (0.25 mg/kg) | HEART Within normal limits, No Exam (0.5 mg/kg) | INTESTINE, Large Within normal limits, No Exam (0.5 mg/kg) | INTESTINE, Small Within normal limits, No Exam (0.5 mg/kg) | KIDNEY Within normal limits, No Exam (0.5 mg/kg) | LIVER Within normal limits, No Exam (0.5 mg/kg) | LUNG Within normal limits, No Exam (0.5 mg/kg) | PANCREAS Within normal limits, No Exam (0.5 mg/kg) | SPLEEN Within normal limits, No Exam (0.5 mg/kg) | STOMACH Within normal limits, No Exam (0.5 mg/kg) | HEART Within normal limits, No Exam (1 mg/kg) | INTESTINE, Large Within normal limits, No Exam (1 mg/kg) | INTESTINE, Small Within normal limits, No Exam (1 mg/kg) | KIDNEY Within normal limits, No Exam (1 mg/kg)
100%: HEART Within normal limits, % (0.125 mg/kg) | INTESTINE, Large Within normal limits, % (0.125 mg/kg) | INTESTINE, Small Within normal limits, % (0.125 mg/kg) | KIDNEY Within normal limits, % (0.125 mg/kg) | LIVER Within normal limits, % (0.125 mg/kg) | LUNG Within normal limits, % (0.125 mg/kg) | PANCREAS Within normal limits, % (0.125 mg/kg) | SPLEEN Within normal limits, % (0.125 mg/kg) | STOMACH Within normal limits, % (0.125 mg/kg) | HEART Within normal limits, % (0.25 mg/kg) | INTESTINE, Large Within normal limits, % (0.25 mg/kg) | INTESTINE, Small Within normal limits, % (0.25 mg/kg) | KIDNEY Within normal limits, % (0.25 mg/kg) | LIVER Within normal limits, % (0.25 mg/kg) | LUNG Within normal limits, % (0.25 mg/kg) | PANCREAS Within normal limits, % (0.25 mg/kg) | SPLEEN Within normal limits, % (0.25 mg/kg) | STOMACH Within normal limits, % (0.25 mg/kg) | HEART Within normal limits, % (0.5 mg/kg) | INTESTINE, Large Within normal limits, % (0.5 mg/kg) | INTESTINE, Small Within normal limits, % (0.5 mg/kg) | KIDNEY Within normal limits, % (0.5 mg/kg) | LIVER Within normal limits, % (0.5 mg/kg) | LUNG Within normal limits, % (0.5 mg/kg) | PANCREAS Within normal limits, % (0.5 mg/kg) | SPLEEN Within normal limits, % (0.5 mg/kg) | STOMACH Within normal limits, % (0.5 mg/kg) | HEART Within normal limits, % (1 mg/kg) | INTESTINE, Large Within normal limits, % (1 mg/kg) | INTESTINE, Small Within normal limits, % (1 mg/kg) | KIDNEY Within normal limits, % (1 mg/kg)
0/10: HEART Notable or abnormal, No Exam (0.125 mg/kg) | INTESTINE, Large Notable or abnormal, No Exam (0.125 mg/kg) | INTESTINE, Small Notable or abnormal, No Exam (0.125 mg/kg) | KIDNEY Edema, No Exam (0.125 mg/kg) | KIDNEY Notable or abnormal, No Exam (0.125 mg/kg) | LIVER Fattening, No Exam (0.125 mg/kg) | LIVER Infiltration, No Exam (0.125 mg/kg) | LIVER Notable or abnormal, No Exam (0.125 mg/kg) | LUNG Lymphocytic infiltration, No Exam (0.125 mg/kg) | LUNG Notable or abnormal, No Exam (0.125 mg/kg) | LUNG Pulmonary edema, No Exam (0.125 mg/kg) | PANCREAS Notable or abnormal, No Exam (0.125 mg/kg) | SPLEEN Notable or abnormal, No Exam (0.125 mg/kg) | STOMACH Notable or abnormal, No Exam (0.125 mg/kg) | HEART Notable or abnormal, No Exam (0.25 mg/kg) | INTESTINE, Large Notable or abnormal, No Exam (0.25 mg/kg) | INTESTINE, Small Notable or abnormal, No Exam (0.25 mg/kg) | KIDNEY Edema, No Exam (0.25 mg/kg) | KIDNEY Notable or abnormal, No Exam (0.25 mg/kg) | LIVER Fattening, No Exam (0.25 mg/kg) | LIVER Infiltration, No Exam (0.25 mg/kg) | LIVER Notable or abnormal, No Exam (0.25 mg/kg) | LUNG Lymphocytic infiltration, No Exam (0.25 mg/kg) | LUNG Notable or abnormal, No Exam (0.25 mg/kg) | LUNG Pulmonary edema, No Exam (0.25 mg/kg) | PANCREAS Notable or abnormal, No Exam (0.25 mg/kg) | SPLEEN Notable or abnormal, No Exam (0.25 mg/kg) | STOMACH Notable or abnormal, No Exam (0.25 mg/kg) | HEART Notable or abnormal, No Exam (0.5 mg/kg) | INTESTINE, Large Notable or abnormal, No Exam (0.5 mg/kg) | INTESTINE, Small Notable or abnormal, No Exam (0.5 mg/kg) | KIDNEY Edema, No Exam (0.5 mg/kg) | KIDNEY Notable or abnormal, No Exam (0.5 mg/kg) | LIVER Fattening, No Exam (0.5 mg/kg) | LIVER Infiltration, No Exam (0.5 mg/kg) | LIVER Notable or abnormal, No Exam (0.5 mg/kg) | LUNG Lymphocytic infiltration, No Exam (0.5 mg/kg) | LUNG Notable or abnormal, No Exam (0.5 mg/kg) | LUNG Pulmonary edema, No Exam (0.5 mg/kg) | PANCREAS Notable or abnormal, No Exam (0.5 mg/kg) | SPLEEN Notable or abnormal, No Exam (0.5 mg/kg) | STOMACH Notable or abnormal, No Exam (0.5 mg/kg) | HEART Notable or abnormal, No Exam (1 mg/kg) | INTESTINE, Large Notable or abnormal, No Exam (1 mg/kg) | INTESTINE, Small Notable or abnormal, No Exam (1 mg/kg) | KIDNEY Edema, No Exam (1 mg/kg) | KIDNEY Notable or abnormal, No Exam (1 mg/kg) | LIVER Fattening, No Exam (1 mg/kg) | LIVER Infiltration, No Exam (1 mg/kg) | LIVER Notable or abnormal, No Exam (1 mg/kg)
